This data set in a line: in vitro. The following applies: human, hela cells, % viability.
What is called viability is a read-out of living cells in per cent, often relative to untreated cells. For the compound `CCCN1CCC(N2CCN(c3ccc([N+](=O)[O-])cc3)CC2)CC1` [CBK018459], the viability at 28.5 h, 10 µM came to 96.3%.

In the case of `CCOC(=O)c1cnc(C(C)(C)C)nc1O` [CBK018470], the viability at 28.5 h, 10 µM came out at 88.6%.

Turning to `COc1ccccc1C(=O)NC1CN2CCC1CC2` (stereo not shown) [CBK018475C], the viability at 28.5 h, 10 µM worked out at 75.5%.

With `O=C(NCc1ccc(Cl)cc1)c1cn(-c2ccccc2)c2ccc(CN3CCOCC3)cc2c1=O` [CBK018481], the viability at 28.5 h, 10 µM was 98.7%.

Consider `CSC(=S)n1c(C)nc2ccccc21` [CBK018539], for which the viability at 28.5 h, 10 µM was found to be 92.3%.

As to `CC1(C)CN(c2ccc(Cl)cn2)C1=O` [CBK018550], the viability at 28.5 h, 10 µM worked out at 93.6%.

With `COc1ccnc(Sc2ccc(Cl)cc2)c1C#N` [CBK018571], the viability at 28.5 h, 10 µM turned out to be 92.2%.

For the compound `CC(=O)c1c2c(c(N3CCN(C#N)CC3)[nH]c1=S)CC(C)(C)OC2` [CBK018622], the viability at 28.5 h, 10 µM amounted to 86.3%.

On to `COC(=O)NC(=S)Nc1ccc2c(c1)OCCO2` [CBK018644], for which the viability at 28.5 h, 10 µM was 79%.

Regarding `S=c1ccc(N/N=C/C2CC=CCC2)n[nH]1` (stereo not shown) [CBK018655], the viability at 28.5 h, 10 µM came out at 95.3%.

For `Cc1cc(S(=O)(=O)CC#N)c(C)cc1Cl` [CBK018672], the viability at 28.5 h, 10 µM was found to be 89.2%.

For the compound `CC1OCN(c2ccc(C(C)(C)C)cc2)Cn2c1nc1ccccc12` (stereo not shown) [CBK018706], the viability at 28.5 h, 10 µM was 88%.

Take `CCN(CC)S(=O)(=O)c1c(C)[nH]c(=O)[nH]c1=O` [CBK018721]: the viability at 28.5 h, 10 µM amounted to 94.1%.

With `Cc1c(-c2ccnc(N)n2)nnn1-c1ccc(Cl)cc1Cl` [CBK018733], the viability at 28.5 h, 10 µM amounted to 65.5%.

Take `O=[N+]([O-])c1ccc(N/N=C/c2cnn(-c3ccccc3)c2)cc1` [CBK018746]: the viability at 28.5 h, 10 µM came to 94%.

As for `N#C/C(=N/Nc1ccc(Br)cc1)C1=NC(=O)CS1` [CBK018747], the viability at 28.5 h, 10 µM is 96%.

Take `CC(C)(C)SCCNc1nc(Cl)nc(N2CCSCC2)n1` [CBK018768]: the viability at 28.5 h, 10 µM amounted to 80.2%.

Regarding `CC(C)c1cc(C(C)C)c(S(=O)(=O)n2cnc3c2c(=O)[nH]c(=O)n3C)c(C(C)C)c1` [CBK018772], the viability at 28.5 h, 10 µM amounted to 107%.

`CCc1nnc(NC(=O)COC(=O)CSc2nc(C)cc(C)n2)s1` [CBK018792]: the viability at 28.5 h, 10 µM is 90.9%.

As for `S=C(Nc1ccccc1Cl)Nc1ccccc1-n1cccc1` [CBK018806], the viability at 28.5 h, 10 µM came to 81.6%.

Turning to `CC(C)(C)C1CCC(=NNC(=O)c2ccc(CN3CCOCC3)cc2)CC1` (stereo not shown) [CBK018812], the viability at 28.5 h, 10 µM worked out at 97.9%.

As to `CNCS(=O)(=O)C(F)(F)S(=O)(=O)N(C)C` [CBK018820], the viability at 28.5 h, 10 µM worked out at 89.7%.

On to `O=c1nc(NN=C2CCCCC2)cn[nH]1` [CBK018838], for which the viability at 28.5 h, 10 µM is 90.8%.

Regarding `CCCc1nnc(C(=O)NC(=O)NCCCN(C)C)s1` [CBK018853], the viability at 28.5 h, 10 µM stood at 84.3%.

As for `COc1ccc(C2SCCCS2)cc1C(C)(C)C` [CBK018886], the viability at 28.5 h, 10 µM is 105%.

As to `COc1ccc(/N=C(/Nc2cccc(C(F)(F)F)c2)SC)cc1` [CBK018896I], the viability at 28.5 h, 10 µM was determined as 98.4%.

Take `O=C(Nc1cccc(C(F)(F)F)c1)c1cnsn1` [CBK018923]: the viability at 28.5 h, 10 µM turned out to be 88.9%.

Consider `O=C(O)CSc1nnc2ccc(C(F)(F)F)cn12` [CBK018930], for which the viability at 28.5 h, 10 µM came out at 81.3%.

For `CC1=NN(C(=O)NS(=O)(=O)c2ccccc2Cl)C(C)(C)C1` [CBK018947], the viability at 28.5 h, 10 µM was found to be 120%.

Consider `COc1cc(Cl)nnc1Cl` [CBK018956], for which the viability at 28.5 h, 10 µM worked out at 108%.

For the compound `CC1(c2ccc(Br)cc2)NC(=O)CS1` (stereo not shown) [CBK018962], the viability at 28.5 h, 10 µM was 92.2%.

As for `O=C(NC(S(=O)O)C(F)(F)F)OCc1ccccc1` (stereo not shown) [CBK018979], the viability at 28.5 h, 10 µM came out at 87%.

As to `C1CN2CCC1/C(=N\Nc1nnn[nH]1)C2` [CBK019005C], the viability at 28.5 h, 10 µM is 93.8%.

Consider `CN(C)c1nc2n(c(=O)n1)CCS2` [CBK019025], for which the viability at 28.5 h, 10 µM stood at 92.3%.

Turning to `CC(=O)Nc1ccc(-c2nc[nH]c2Br)cc1` [CBK019063], the viability at 28.5 h, 10 µM worked out at 88%.

As to `COC(=O)c1ccc(SCc2nc(N3CCOCC3)c3c(c2C#N)CC(C)(C)OC3)o1` [CBK019077], the viability at 28.5 h, 10 µM came to 114%.

For the compound `FC(F)(F)c1csc(Nc2ccc(Cl)c(Cl)c2)n1` [CBK019093], the viability at 28.5 h, 10 µM is 85.6%.

Take `CC(C)(C)NCCN1CCn2c1nc1ccccc12` [CBK019113]: the viability at 28.5 h, 10 µM was 82%.

Consider `CC1CCCC(C)N1c1nn(C)c(=O)[nH]1` (stereo not shown) [CBK019114], for which the viability at 28.5 h, 10 µM is 100%.

Turning to `Cc1ccc(C)n1C1CC(C)(C)NC(C)(C)C1` [CBK019116], the viability at 28.5 h, 10 µM came to 91.1%.

For `COc1ccc2sc(Br)c(C(=O)O)c2c1` [CBK019180], the viability at 28.5 h, 10 µM was found to be 103%.

Take `COC(=O)CNC(c1ccccc1)c1cc(Br)ccc1N` (stereo not shown) [CBK019222]: the viability at 28.5 h, 10 µM came out at 96.8%.

With `Cc1cc(=O)[nH]c(SCC(=O)O)c1C#N` [CBK019224], the viability at 28.5 h, 10 µM was found to be 116%.

In the case of `Cc1cc(Oc2ccc(Cl)cc2Cl)nc(OCC#N)n1` [CBK019232], the viability at 28.5 h, 10 µM is 96.9%.

For the compound `O=S1(=O)CCC(SCc2ccccc2)C1` (stereo not shown) [CBK019237], the viability at 28.5 h, 10 µM stood at 89.1%.

Turning to `CN(C)c1ccc(/C=N/N=C2\NC(=O)CS2)cc1` [CBK019273], the viability at 28.5 h, 10 µM amounted to 60.6%.

With `O=C(CN1CCOCC1)c1ccc(O)o1` [CBK019286], the viability at 28.5 h, 10 µM was found to be 95.4%.

Turning to `Cc1ccc(C(=O)C2CCN(S(=O)(=O)c3ccc(Cl)c(Cl)c3)CC2)cc1` [CBK019294], the viability at 28.5 h, 10 µM was 106%.

In the case of `CCCCCCC1N=NC(c2ccc(F)cc2)=CN1O` (stereo not shown) [CBK019298], the viability at 28.5 h, 10 µM came out at 94.8%.

As for `O=S1(=O)N=C(c2cccs2)C=C(C(F)(F)F)N1` [CBK019309], the viability at 28.5 h, 10 µM came out at 106%.

As for `COc1nc(OC)nc(Sc2ccc(N)cc2)n1` [CBK019319], the viability at 28.5 h, 10 µM was 88.3%.

Take `N#Cc1c(-c2ccc(Cl)cc2)c[nH]c1N` [CBK019323]: the viability at 28.5 h, 10 µM was 104%.

Take `CC(C)(C)OC(=O)N(Cc1cccs1)S(C)(=O)=O` [CBK019338]: the viability at 28.5 h, 10 µM came to 94.1%.

As to `CN1CCN(CC(=O)N/N=C/C2CC=CCC2)CC1` (stereo not shown) [CBK019340], the viability at 28.5 h, 10 µM was 89.6%.

`CCP(CC)c1ccc(C(=O)O)cc1` [CBK019342B]: the viability at 28.5 h, 10 µM was found to be 91.1%.

Take `CSc1ccc(CN(C)CCN(C)C)cc1` [CBK019349]: the viability at 28.5 h, 10 µM came out at 97.9%.

As for `CC1CN(C2(n3nnc4ccccc43)CCC(C(C)(C)C)CC2)CC(C)O1` (stereo not shown) [CBK019373], the viability at 28.5 h, 10 µM came out at 98.5%.

On to `O=S(=O)(c1ccc(C2=CSC3=NCCN23)cc1)N1CCOCC1` [CBK019381], for which the viability at 28.5 h, 10 µM came out at 101%.

Consider `CSc1nn(C)c(=S)c2c3c(oc12)CCC3` [CBK019474], for which the viability at 28.5 h, 10 µM turned out to be 92.3%.

With `CCOC(=O)N/N=C(/C)c1ccc(Br)s1` [CBK019480], the viability at 28.5 h, 10 µM came out at 93.5%.

Regarding `CS(=O)(=O)CS(=O)(=O)C1=C(N2CCOCC2)C2CCN1CC2` [CBK019499], the viability at 28.5 h, 10 µM came to 87.5%.

As to `CCOc1sc(=S)n(C)c1C(C)=O` [CBK019515], the viability at 28.5 h, 10 µM was determined as 88%.

As for `O=C(CSc1cccs1)Nc1nccs1` [CBK019601], the viability at 28.5 h, 10 µM stood at 88.7%.

With `N#Cc1sc(N)c2ccc(-c3ccncc3)nc12` [CBK019761], the viability at 28.5 h, 10 µM worked out at 105%.

Source of the values: PMC12040169 (PLOS Biology, 2025).
